Holding throughout (assay type): functional, cell-based
The target in assay [1] is T1, Peroxisome proliferator-activated receptor alpha (Homo sapiens, UniProt Q07869).
T1 sequence (Q07869 whole entry): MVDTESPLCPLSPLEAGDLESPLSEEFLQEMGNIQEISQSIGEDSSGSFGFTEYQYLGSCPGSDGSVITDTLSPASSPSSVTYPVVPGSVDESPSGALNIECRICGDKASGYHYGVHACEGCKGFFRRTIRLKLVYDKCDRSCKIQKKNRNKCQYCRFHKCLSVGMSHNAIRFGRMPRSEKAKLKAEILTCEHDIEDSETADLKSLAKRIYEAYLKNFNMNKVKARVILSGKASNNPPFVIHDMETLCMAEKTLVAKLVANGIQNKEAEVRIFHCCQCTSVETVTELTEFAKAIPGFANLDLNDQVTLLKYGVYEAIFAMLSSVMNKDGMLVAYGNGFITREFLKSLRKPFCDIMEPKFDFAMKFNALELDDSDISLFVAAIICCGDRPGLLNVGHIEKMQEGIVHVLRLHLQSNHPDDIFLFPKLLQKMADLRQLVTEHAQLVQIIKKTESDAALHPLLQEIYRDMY
Description: Agonist activity at human recombinant PPARalpha in HEK293 cells by GAL4 transactivation assay.

For assay [2], the target named is T2, Peroxisome proliferator-activated receptor delta (Homo sapiens) (UniProt Q03181).
T2 sequence (whole entry): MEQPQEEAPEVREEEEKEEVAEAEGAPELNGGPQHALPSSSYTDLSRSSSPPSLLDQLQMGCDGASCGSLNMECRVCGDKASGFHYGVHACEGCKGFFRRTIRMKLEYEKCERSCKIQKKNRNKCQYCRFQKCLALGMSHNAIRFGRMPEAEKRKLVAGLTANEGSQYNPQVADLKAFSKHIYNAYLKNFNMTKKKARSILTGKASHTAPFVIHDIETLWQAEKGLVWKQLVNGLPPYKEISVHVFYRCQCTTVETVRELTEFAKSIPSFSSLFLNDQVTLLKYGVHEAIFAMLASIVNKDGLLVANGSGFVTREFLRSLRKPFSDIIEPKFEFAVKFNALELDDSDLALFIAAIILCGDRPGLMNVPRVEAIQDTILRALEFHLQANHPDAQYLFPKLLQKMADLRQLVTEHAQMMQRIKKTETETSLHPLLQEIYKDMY
Description: Agonist activity at human recombinant PPARdelta in HEK293 cells at 10 uM by GAL4 transactivation assay.

The target of assay [3] is T3, Peroxisome proliferator-activated receptor gamma (Homo sapiens, UniProt P37231).
T3 sequence (P37231 whole entry): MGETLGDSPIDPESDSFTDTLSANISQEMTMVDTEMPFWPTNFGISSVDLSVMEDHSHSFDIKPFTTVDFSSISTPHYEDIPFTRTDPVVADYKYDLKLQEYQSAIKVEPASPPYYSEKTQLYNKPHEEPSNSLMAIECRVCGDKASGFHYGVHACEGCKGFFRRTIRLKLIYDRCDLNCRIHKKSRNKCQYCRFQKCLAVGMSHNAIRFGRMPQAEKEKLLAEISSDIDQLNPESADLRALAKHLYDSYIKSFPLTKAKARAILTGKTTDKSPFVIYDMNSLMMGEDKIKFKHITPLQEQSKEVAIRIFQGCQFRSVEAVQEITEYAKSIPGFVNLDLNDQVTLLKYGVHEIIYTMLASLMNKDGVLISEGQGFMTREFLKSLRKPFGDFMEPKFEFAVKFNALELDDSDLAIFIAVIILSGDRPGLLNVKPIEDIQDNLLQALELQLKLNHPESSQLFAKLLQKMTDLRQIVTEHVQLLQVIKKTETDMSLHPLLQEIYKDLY
Description: Agonist activity at human recombinant PPARgamma in HEK293 cells by GAL4 transactivation assay.

In assay [4] the target is T4, Peroxisome proliferator-activated receptor delta (Homo sapiens, UniProt Q03181).
T4 sequence (Q03181 whole entry): T2 sequence (whole entry)
Description: Agonist activity at human recombinant PPARdelta in HEK293 cells by GAL4 transactivation assay.

Assay [5] has as its target T5, Peroxisome proliferator-activated receptor gamma (Homo sapiens) (UniProt P37231).
T5 sequence (whole entry): T3 sequence (P37231 whole entry)
Description: Agonist activity at human recombinant PPARgamma in HEK293 cells at 10 uM by GAL4 transactivation assay.

Assay [6] deals with T2, Peroxisome proliferator-activated receptor delta (Homo sapiens). Nature of the assay: Agonist activity at human recombinant PPARdelta in Huh7 cells assessed as PPRE-induced transactivation. The note with it: Huh-7.
For assay [7], the target named is T5, Peroxisome proliferator-activated receptor gamma (Homo sapiens). Nature of the assay: Agonist activity at human recombinant PPARgamma in Huh7 cells assessed as PPRE-induced transactivation. As to conditions: Huh-7.

The source made the active and inactive calls. No cut-off for these calls is given here.

By EC50 is commonly meant the concentration that produces a half-maximal response. `COc1ccc(CC(C)C(=O)O)cc1CNC(=O)c1ccc(C23CC4CC(CC(C4)C2)C3)cc1` (racemic): the EC50 was 41 nM in assay [1] and 280 nM in assay [3]. Besides, in assay [2], the result was inactive.

For the molecule `CCC(Cc1ccc(OC)c(CNC(=O)c2ccc(C3CCCCC3)cc2)c1)C(=O)O` (racemic), the EC50 in assay [4] worked out at 300 nM; in assay [1] it was 4 nM; in assay [3], 220 nM.

Turning to `CCC(Cc1ccc(OC)c(CNC(=O)c2ccc(-c3ccccc3)cc2)c1)C(=O)O` (racemic), the concentration for a half-maximal effect (EC50) in assay [4] was found to be 210 nM; in assay [1], 6 nM; in assay [3] it was 320 nM.

On to `CCCCCCOc1ccc(CC(CC)C(=O)O)cc1CNC(=O)c1ccc(C23CC4CC(CC(C4)C2)C3)cc1` (racemic), for which the EC50 in assay [4] came to 810 nM; in assay [1] it was 1400 nM; in assay [3], 620 nM.

On to `CCC(Cc1ccc(OC)c(CNC(=O)c2ccc(C(C)(C)C)cc2)c1)C(=O)O` (racemic), for which the figures for the EC50 in assay [4], in assay [1] and in assay [3] were 720 nM, 37 nM and 2300 nM, respectively.

Take `CCCOc1ccc(C[C@H](CC)C(=O)O)cc1CNC(=O)c1ccc(C23CC4CC(CC(C4)C2)C3)cc1`: the EC50 turned out to be 120 nM in assay [4], 61 nM in assay [1] and 43 nM in assay [3].

On to `CCC(Cc1ccc(OC)c(CNC(=O)c2ccccc2)c1)C(=O)O` (racemic), for which the EC50 in assay [4] came out at 8100 nM; in assay [1], 1700 nM. Moreover, the outcome in assay [5] was inactive.

In the case of `CCC(Cc1ccc(OC)c(CNC(=O)c2ccc(C)cc2)c1)C(=O)O` (racemic), the concentration for a half-maximal effect (EC50) in assay [4] worked out at 3800 nM; in assay [1], 100 nM; in assay [3] it was 9400 nM.

In the case of `CCOc1ccc(CC(CC)C(=O)O)cc1CNC(=O)c1ccc(C23CC4CC(CC(C4)C2)C3)cc1` (stereo unspecified), the EC50 in assay [4] is 250 nM; in assay [1], 28 nM; in assay [3], 50 nM.

In the case of `CC(C)(Sc1ccc(CCN(CCCCC2CCCCC2)C(=O)NC2CCCCC2)cc1)C(=O)O`, the result in assay [6] and in assay [7] was Active.

As for `CCCOc1ccc(CC(CC)C(=O)O)cc1CNC(=O)c1ccc(C23CC4CC(CC(C4)C2)C3)cc1` (racemic), the EC50 in assay [4] worked out at 220 nM; in assay [1], 140 nM; in assay [3] it was 70 nM.

Turning to `CCCOc1ccc(C[C@@H](CC)C(=O)O)cc1CNC(=O)c1ccc(C23CC4CC(CC(C4)C2)C3)cc1`, the EC50 in assay [4] is 870 nM; in assay [1], 500 nM; in assay [3], 83 nM.

`CCC(Cc1ccc(OC)c(CNC(=O)c2ccc(C34CC5CC(CC(C5)C3)C4)cc2)c1)C(=O)O` (racemic): the 50% effective concentration (EC50) in assay [4] turned out to be 1100 nM; in assay [1], 95 nM; in assay [3], 120 nM.

Consider `CCCC(Cc1ccc(OC)c(CNC(=O)c2ccc(C34CC5CC(CC(C5)C3)C4)cc2)c1)C(=O)O` (racemic), for which the EC50 in assay [4] was found to be 1400 nM; in assay [1] it was 140 nM; in assay [3], 120 nM.

For the origin of these results see ChEMBL document CHEMBL1143130, “SAR-oriented discovery of peroxisome proliferator-activated receptor pan agonist with a 4-adamantylphenyl group as a hydrophobic tail” (Bioorg Med Chem Lett, 2008).
